Test results published in patent US20050239856A1, “Method for prophylaxis and treatment of diabetic complications with 4{alpha-hydroxy-2-methyl-5-(1-imidazolyl)benzyl}-3,5-dimethylbenzoic acid and derivatives” (priority 1995, published 2005).

Legend:
[1] = tested on: tail nerve of streptozotocin diabetic Sprague-Dawley rats; assay: Tail nerve conduction velocity in streptozotocin-induced diabetic rats (Experimental Example 1); format: in vivo, rat; conditions: STZ diabetic rats; for tail nerve conduction velocity 4 wks after administration / tail nerve conduction velocity 7 wks after administration / tail nerve conduction velocity 5 wks after administration: mean ± standard error; for effect on tail nerve conduction velocity decreased by diabetes (in words): dose-dependent, oral once a day
Procedure: (§1) Diabetes was induced by intravenous administration of streptozotocin (65 mg/kg) to 6-week-old male Sprague-Dawley rats. Starting from 2-4 weeks after the onset of diabetes, a 0.5% hydroxypropylmethylcellulose suspension containing the compound of the present invention was orally administered once a day. At 4-7 weeks from the administration, tail nerve conduction velocity was measured with an induction potential test device (Neuropack 2, manufactured by Nihon Kohden) according to a modification of the method of Miyoshi (Fukuoka Medical Journal, vol. 62, pp. 588-603 (1971)). To be specific, subcutaneous temperature at the tail was maintained at 37° C. and the tail nerve was percutaneously stimulated electrically at 2 stimulation points (interval 6 cm). The distance between stimulation points was divided by the difference between latencies in electromyogram induced to give nerve conduction velocity. As to the test group in Table 1, blood glucose was measured at 6 weeks after administration. At 7 weeks after administration, urinary excretion of TXB2, which is a stable metabolite of TXA2, was measured.

[2] = tested on: sciatic nerve of spontaneously diabetic mice (db/db); assay: Sciatic nerve conduction velocity in spontaneously diabetic mice (db/db) (Experimental Example 2); format: in vivo, mouse; conditions: for sciatic nerve conduction velocity 5 wks after administration / sciatic nerve conduction velocity 4 wks after administration: db/db mice, mean ± standard error; for effect on sciatic nerve conduction velocity (in words): spontaneous diabetic mice, oral once a day
Procedure: A 0.5% hydroxypropylmethylcellulose suspension containing the compound of the present invention was orally administered to 9-week-old male spontaneously diabetic mice (db/db) once a day. At 4-5 weeks from the administration, sciatic nerve conduction velocity was measured with an induction potential test device (Neuropack 2, manufactured by Nihon Kohden) according to a modification of the method of Yasuda (Diabetes, 38, p. 832-838 (1989)). To be specific, rectal temperature was maintained at 37° C. and two points of sciatic notch and ankle were percutaneously stimulated electrically. The distance between the stimulation points was divided by the difference between latencies in induced electromyogram to give nerve conduction velocity.

biosynthesis of TXA2 = assay: Biosynthesis of TXA2 in rats with diabetes (sodium ozagrel); format: in vivo, rat
[3] = tested on: tail nerve of rats with diabetes; assay: Tail nerve conduction velocity in rats with diabetes (sodium ozagrel); format: in vivo, rat
[4] = Blood glucose in streptozotocin-induced diabetic rats (Experimental Example 1); format: in vivo, rat; conditions: STZ diabetic rats; for blood glucose: 6 weeks after administration, mean ± standard error
Procedure: as §1

[5] = tested on: TXA2 biosynthesis (urinary TXB2); assay: Urinary excretion of TXB2, stable metabolite of TXA2, in streptozotocin-induced diabetic rats (Experimental Example 1); format: in vivo, rat; conditions: STZ diabetic rats; for urinary TXB2 excretion: 7 weeks after administration, mean ± standard error
Procedure: as §1

[6] = tested on: tail nerve of streptozotocin diabetic Sprague-Dawley rats; assay: Tail nerve conduction velocity in rats, administration from 16 weeks after onset of streptozotocin diabetes (Experimental Example 3); format: in vivo, rat; conditions: for tail nerve conduction velocity 5 wks after administration: started 16 weeks after onset of STZ diabetes; for tail nerve conduction velocity 5 wks after administration / tail nerve conduction velocity Before administration: mean ± standard error; for tail nerve conduction velocity Before administration: 16 weeks after onset of STZ diabetes
Procedure: Diabetes was induced by intravenous administration of streptozotocin (65 mg/kg) to 6-week-old male Sprague-Dawley rats. Starting from 16 weeks after the onset of diabetes, a 0.5% hydroxypropylmethylcellulose suspension containing compound A-1 was orally administered once a day. At 5 weeks from the administration, tail nerve conduction velocity was measured with arm induction potential test device (Neuropack 2, manufactured by Nihon Kohden) according to a modification of the method of Miyoshi (Fukuoka Medical Journal, vol. 62, pp. 588-603 (1971)). To be specific, subcutaneous temperature at the tail was maintained at 37° C. and the tail nerve was percutaneously stimulated electrically at 2 stimulation points (interval 6 cm). The distance between the stimulation points was divided by the difference between latencies in induced electromyogram to give nerve conduction velocity.

[7] = tested on: kidney glomerulus of streptozotocin diabetic Sprague-Dawley rats; assay: Degree of glomerular disorder in streptozotocin-induced diabetic rats (Experimental Example 4); format: in vivo, rat; conditions: STZ diabetic rats; for glomerular disorder score: total score of 50 glomeruli (0-4 each), mean ± standard error
Procedure: Diabetes was induced by intravenous administration of streptozotocin (65 mg/kg) to 5-week-old male Sprague-Dawley rats. Starting from 9 weeks after the onset of diabetes, a 0.5% hydroxypropylmethylcellulose suspension containing compound A-1 was orally administered once a day. At 9 weeks from the administration, kidney was removed to determine the degree of glomerular disorder and fixed in a 10% neutral-buffered formalin solution. Tissue sections were stained with hematoxylin/eosin. Glomerulus was evaluated according to the degree of obstruction in 5 stages (0: no obstruction, 1: up to 25% obstruction, 2: up to 50% obstruction, 3: up to 75% obstruction, 4: up to 100% obstruction). Fifty glomeruli were evaluated per sample and the total score was used as an index of the degree of glomerular disorder. This operation was done under a single blind condition.

SMILES: Cc1ccc(-n2ccnc2)cc1[C@H](O)c1c(C)cc(C(=O)O)cc1C [Compound A-4, (S)-(−)-4-[α-hydroxy-2-methyl-5-(1-imidazolyl)benzyl]-3,5-dimethylbenzoic acid]
- tail nerve conduction velocity 4 wks after administration ([1]; 0.3 mg/kg/day oral once a day): 40.9 ± 0.5 m/sec
- tail nerve conduction velocity 4 wks after administration ([1]; 1 mg/kg/day oral once a day): 41.3 ± 0.4 m/sec
- tail nerve conduction velocity 4 wks after administration ([1]; 3 mg/kg/day oral once a day): 41.7 ± 0.5 m/sec
- effect on tail nerve conduction velocity decreased by diabetes (in words) [1]: suppressed decrease in tail nerve conduction velocity
- sciatic nerve conduction velocity 5 wks after administration ([2]; 0.3 mg/kg/day oral once a day): 45.2 ± 1.2 m/sec
- sciatic nerve conduction velocity 5 wks after administration ([2]; 1 mg/kg/day oral once a day): 45.9 ± 0.7 m/sec
- sciatic nerve conduction velocity 5 wks after administration ([2]; 3 mg/kg/day oral once a day): 45.3 ± 0.8 m/sec
- effect on sciatic nerve conduction velocity (in words) [2]: increased sciatic nerve conduction velocity

SMILES: O=C([O-])/C=C/c1ccc(Cn2ccnc2)cc1.[Na+] [sodium ozagrel, sodium (E)-p-(imidazol-1-ylmethyl)cinnamate]
- effect on promotion of biosynthesis of TXA2 (in words) (biosynthesis of TXA2): suppresses promotion of biosynthesis of TXA2
- effect on decreased tail nerve conduction velocity (in words) [3]: does not improve decreased tail nerve conduction velocity

SMILES: Cc1ccc(-n2ccnc2)cc1C(O)c1c(C)cc(C(=O)[O-])cc1C.O.O.[Na+] (stereo not drawn) [Compound A-1, sodium 4-[α-hydroxy-2-methyl-5-(1-imidazolyl)benzyl]-3,5-dimethylbenzoate dihydrate]
- tail nerve conduction velocity 7 wks after administration ([1]; 0.03 mg/kg/day oral once a day): 42.0 ± 0.5 m/sec
- tail nerve conduction velocity 7 wks after administration ([1]; 0.1 mg/kg/day oral once a day): 43.4 ± 0.4 m/sec
- tail nerve conduction velocity 7 wks after administration ([1]; 0.3 mg/kg/day oral once a day): 43.7 ± 0.3 m/sec
- tail nerve conduction velocity 7 wks after administration ([1]; 1.0 mg/kg/day oral once a day): 44.8 ± 0.4 m/sec
- effect on tail nerve conduction velocity decreased by diabetes (in words) [1]: increased tail nerve conduction velocity
- blood glucose ([4]; 0.03 mg/kg/day oral once a day): 718.3 ± 50.7 mg/dL
- blood glucose ([4]; 0.1 mg/kg/day oral once a day): 772.1 ± 32.4 mg/dL
- blood glucose ([4]; 0.3 mg/kg/day oral once a day): 791.9 ± 65.5 mg/dL
- blood glucose ([4]; 1.0 mg/kg/day oral once a day): 718.4 ± 64.1 mg/dL
- effect on blood glucose (in words) ([4]; 0.03-1.0 mg/kg/day): without affecting the blood glucose
- urinary TXB2 excretion ([5]; 0.03 mg/kg/day oral once a day): 10.6 ± 1.4 ng/day/100 g body weight
- urinary TXB2 excretion ([5]; 0.1 mg/kg/day oral once a day): 6.9 ± 0.8 ng/day/100 g body weight
- urinary TXB2 excretion ([5]; 0.3 mg/kg/day oral once a day): 5.1 ± 0.5 ng/day/100 g body weight
- urinary TXB2 excretion ([5]; 1.0 mg/kg/day oral once a day): 3.4 ± 0.3 ng/day/100 g body weight
- effect on urinary TXB2 excretion increased by diabetes (in words) ([5]; dose-dependent, 0.03-1.0 mg/kg/day): decreased urinary TXB2 excretion
- tail nerve conduction velocity 5 wks after administration ([6]; 0.3 mg/kg/day oral once a day): 48.3 ± 0.6 m/sec
- tail nerve conduction velocity 5 wks after administration ([6]; 1 mg/kg/day oral once a day): 49.4 ± 0.4 m/sec
- tail nerve conduction velocity 5 wks after administration ([6]; 3 mg/kg/day oral once a day): 50.2 ± 0.5 m/sec
- effect on tail nerve conduction velocity lowered by the progression of diabetes (in words) ([6]; administration from 16 weeks after onset of diabetes, dose-dependent): increased tail nerve conduction velocity
- tail nerve conduction velocity Before administration ([6]; baseline of the 0.3 mg/kg/day group): 46.2 ± 0.5 m/sec
- tail nerve conduction velocity Before administration ([6]; baseline of the 1 mg/kg/day group): 46.1 ± 0.4 m/sec
- tail nerve conduction velocity Before administration ([6]; baseline of the 3 mg/kg/day group): 46.0 ± 0.3 m/sec
- glomerular disorder score ([7]; 0.3 mg/kg/day oral once a day for 9 weeks): 90.8 ± 10.0
- glomerular disorder score ([7]; 1 mg/kg/day oral once a day for 9 weeks): 65.7 ± 12.0
- glomerular disorder score ([7]; 10 mg/kg/day oral once a day for 9 weeks): 55.4 ± 9.2
- effect on glomerular disorder due to diabetes (in words) ([7]; dose-dependent): suppressed glomerular disorder

SMILES: Cc1ccc(-n2ccnc2)cc1[C@H](O)c1c(C)cc(C(=O)[O-])cc1C.O.[Na+] [Compound A-2, sodium (S)-(−)-4[α-hydroxy-2-methyl-5-(1-imidazolyl)benzyl]-3,5-dimethylbenzoate 2/3 hydrate]
- tail nerve conduction velocity 5 wks after administration ([1]; 0.03 mg/kg/day oral once a day): 40.7 ± 0.5 m/sec
- tail nerve conduction velocity 5 wks after administration ([1]; 0.1 mg/kg/day oral once a day): 42.6 ± 0.4 m/sec
- tail nerve conduction velocity 5 wks after administration ([1]; 0.3 mg/kg/day oral once a day): 43.0 ± 0.3 m/sec
- tail nerve conduction velocity 5 wks after administration ([1]; 1 mg/kg/day oral once a day): 42.6 ± 0.5 m/sec
- effect on tail nerve conduction velocity decreased by diabetes (in words) [1]: suppressed decrease in tail nerve conduction velocity
- sciatic nerve conduction velocity 4 wks after administration ([2]; 0.05 mg/kg/day oral once a day): 46.6 ± 1.5 m/sec
- sciatic nerve conduction velocity 4 wks after administration ([2]; 0.5 mg/kg/day oral once a day): 51.9 ± 1.2 m/sec
- sciatic nerve conduction velocity 4 wks after administration ([2]; 5 mg/kg/day oral once a day): 51.7 ± 1.4 m/sec
- effect on sciatic nerve conduction velocity (in words) [2]: increased sciatic nerve conduction velocity
